Tests used:
[1] = Residual magenta coupler M-20 in unexposed strips, raw stock and RA-4 processed; settings: coated M-20 32.8 mg/ft^2; for M-20 remaining, Processed after 2wk / M-20 remaining, Processed after 4wk: unexposed strips, standard RA-4 developer; for M-20 remaining, Processed after 2wk / M-20 remaining, Raw Stock after 2wk RT: 2 weeks room temperature; for M-20 remaining, Processed after 4wk / M-20 remaining, Raw Stock after 4wk: 4 weeks room temperature; for M-20 remaining, Raw Stock after 2wk RT / M-20 remaining, Raw Stock after 4wk: unprocessed strips
Description: A dispersion of the magenta coupler M-20 and scavenger coupler S-1 were prepared in the following manner:
The oil phase was prepared by combining 1.875 grams of S-1 with 0.852 grams of myrisitc acid and 30 grams of ethyl acetate. The solution was stirred on a hot plate for about 5 minutes.
The aqueous phase was prepared by combining 3.0 grams of a 10% solution of Alkanol XC with 17.6 grams of a 11.36% solution of Type IV gelatin in water. 26.7 grams of distilled water was then added and the solution was stirred on a hot plate for about five minutes.
The aqueous phase was combined with the oil phase and the mixture was stirred. The mixture was then passed three times through a colloid mill to obtain the dispersion. The ethyl acetate was removed by evaporation under reduced pressure. [drawing 42] The dispersions were then coated in the format shown below (the numbers indicate the amount of each component in mg/ft^2).
The coating format also contains a UV protection layer and an overcoat (not shown). Unexposed strips were process in standard RA-4 developer and then stored at room temperature. The strips were analyzed for residual coupler as a function of time. A set of unprocessed strips were stored at room temperature for the same length of time to check for reaction between coupler and S-1 in raw stock. A second set of unexposed strips were processed in standard RA-4 developer and then subjected to two weeks of 50 klux high intensity sunshine radiation after storage at room temperature for two weeks. The change in Status A blue density was measured. […]

[2] = Change in Status A blue density (photochemical yellowing) of processed unexposed strips under high intensity sunshine radiation; settings: RA-4 processed, 2 weeks room temperature, then two weeks 50 klux high intensity sunshine
Description: The coating format also contains a UV protection layer and an overcoat (not shown). Unexposed strips were process in standard RA-4 developer and then stored at room temperature. The strips were analyzed for residual coupler as a function of time. A set of unprocessed strips were stored at room temperature for the same length of time to check for reaction between coupler and S-1 in raw stock. A second set of unexposed strips were processed in standard RA-4 developer and then subjected to two weeks of 50 klux high intensity sunshine radiation after storage at room temperature for two weeks. The change in Status A blue density was measured.
This coating also contained a UV protection layer and overcoat (not shown). Strips based on the coating were subjected to the same set of tests as in Example 4.

[3] = epoxy compound coated in separate layers adjacent to imaging layer; copending application Ser. No. 08/000,431; cited from earlier work

O=C(OCCCCCCCCCC1CO1)c1ccccc1C(=O)OCCCCCCCCCC1CO1 (centres unmarked) [S-1]
M-20 remaining, Processed after 2wk [1]: 29.9 mg/ft.2
M-20 remaining, Processed after 4wk [1]: 29.3 mg/ft.2
M-20 remaining, Raw Stock after 2wk RT [1]: 30.2 mg/ft.2
M-20 remaining, Raw Stock after 4wk [1]: 28.8 mg/ft.2
Delta Blue Density [2]: 0.13
loss of coupler prior to processing [3]: negligible loss of coupler prior to processing

O=C(CCCCCCCCC1CO1)Oc1ccc(NS(=O)(=O)c2ccc(F)cc2F)cc1 (centres unmarked) [SI-20]
M-20 remaining, Processed after 2wk [1]: 14.9 mg/ft.2
M-20 remaining, Processed after 4wk [1]: 13.9 mg/ft.2
M-20 remaining, Raw Stock after 2wk RT [1]: 28.6 mg/ft.2
M-20 remaining, Raw Stock after 4wk [1]: 28.4 mg/ft.2
Delta Blue Density [2]: 0.05

Reference: patent US5543276A, “Color photographic element containing new epoxy scavengers for residual magenta coupler” (Eastman Kodak Company, priority 1994, dated 1996)
